Counter-ions that a name gives are not always drawn.
Experiments:
[1] = system: L-subtype vascular endothelium; settings: aged C57BL/6J male mice; prior art; cited from earlier work
[2] = system: H-subtype bone vascular endothelial cells; test: Example 1: fluorescence microscopy (CD31, EMCN) of bone vascular endothelial cells at the femoral epiphyseal end, after intraosseous hM3Dq virus and CNO injection; format: in vivo, TH-Cre transgenic mouse; settings: hM3Dq side vs mCherry control side; CNO 1 mg/kg every 48 h for 4 weeks
Experimental: A TH-Cre transgenic mouse aged 4 weeks was selected and anesthetized, and then the skin and muscle on the femur of the mouse were carefully parted. A hole was made in the femur using a small needle to reach the marrow cavity. Using a microsyringe, 1 μL of pAAV-hSyn-DIO-hM3D(Gq)-mCherry with a viral titer of about […] was slowly injected into the long bone marrow cavity of the TH-Cre mouse on one side of the femur in the lower limb through the small hole, serving as an experimental group (recorded as hM3Dq); on the other side, pAAV-hSyn-DIO-mCherry was injected, serving as a control group (recorded as mCherry). […]
After recovery of the mouse and 6 weeks of expression of the gene carried by the virus, CNO was injected (at a dose to achieve a concentration of 1 mg/kg in the mouse) every 48 h for 4 consecutive weeks. […] Data were expressed as (Means±S.E.M.); P<0.05 was considered a significant difference.
CD31 is marked with green fluorescence, and EMCN is marked with red fluorescence; both are markers for H-subtype bone vascular endothelium. The stronger the fluorescence intensity, the more complete the vascular morphology, indicating greater expression of CD31 and EMCN, i.e., the higher number of the H-subtype bone vascular endothelial cells. […]

[3] = Example 1: microCT of the trabecular bone at the femoral epiphyseal end, after intraosseous hM3Dq virus and CNO injection; format: in vivo, TH-Cre transgenic mouse; settings: CNO 1 mg/kg every 48 h for 4 weeks
[4] = system: H-subtype bone vascular endothelial cells; test: Example 2: fluorescence microscopy (CD31, EMCN) of bone vascular endothelial cells at the femoral epiphyseal end, after intraosseous hM4Di virus and CNO injection; format: in vivo, TH-Cre transgenic mouse; settings: hM4Di side vs mCherry control side; CNO 1 mg/kg every 48 h for 4 weeks
[5] = Example 2: microCT of the trabecular bone at the femoral epiphyseal end, after intraosseous hM4Di virus and CNO injection; format: in vivo, TH-Cre transgenic mouse; settings: CNO 1 mg/kg every 48 h for 4 weeks
[6] = molecular target: T1, hM4Di (Homo sapiens, UniProt P08173, A203G/Y113C); settings: comparator not stated; patent notes structural similarity to clozapine; cited from earlier work
T1 sequence (P08173 1-479 Y113C/A203G): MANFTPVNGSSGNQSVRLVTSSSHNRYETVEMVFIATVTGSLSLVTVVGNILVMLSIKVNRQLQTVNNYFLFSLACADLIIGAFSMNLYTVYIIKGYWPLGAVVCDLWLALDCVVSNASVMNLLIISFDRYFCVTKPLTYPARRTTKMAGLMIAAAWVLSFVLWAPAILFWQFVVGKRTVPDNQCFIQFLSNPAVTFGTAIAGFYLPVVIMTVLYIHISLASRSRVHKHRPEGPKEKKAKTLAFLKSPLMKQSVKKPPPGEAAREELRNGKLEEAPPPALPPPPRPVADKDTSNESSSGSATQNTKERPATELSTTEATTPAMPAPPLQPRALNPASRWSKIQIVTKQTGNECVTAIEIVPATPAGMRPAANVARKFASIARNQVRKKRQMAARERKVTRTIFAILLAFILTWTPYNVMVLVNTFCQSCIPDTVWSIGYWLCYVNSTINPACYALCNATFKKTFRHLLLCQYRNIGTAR

[7] = molecular target: hM3Dq (Homo sapiens, UniProt P20309, A239G/Y149C); settings: comparator not stated; patent notes structural similarity to clozapine; cited from earlier work
hM3Dq, sequence (P20309 whole entry Y149C/A239G): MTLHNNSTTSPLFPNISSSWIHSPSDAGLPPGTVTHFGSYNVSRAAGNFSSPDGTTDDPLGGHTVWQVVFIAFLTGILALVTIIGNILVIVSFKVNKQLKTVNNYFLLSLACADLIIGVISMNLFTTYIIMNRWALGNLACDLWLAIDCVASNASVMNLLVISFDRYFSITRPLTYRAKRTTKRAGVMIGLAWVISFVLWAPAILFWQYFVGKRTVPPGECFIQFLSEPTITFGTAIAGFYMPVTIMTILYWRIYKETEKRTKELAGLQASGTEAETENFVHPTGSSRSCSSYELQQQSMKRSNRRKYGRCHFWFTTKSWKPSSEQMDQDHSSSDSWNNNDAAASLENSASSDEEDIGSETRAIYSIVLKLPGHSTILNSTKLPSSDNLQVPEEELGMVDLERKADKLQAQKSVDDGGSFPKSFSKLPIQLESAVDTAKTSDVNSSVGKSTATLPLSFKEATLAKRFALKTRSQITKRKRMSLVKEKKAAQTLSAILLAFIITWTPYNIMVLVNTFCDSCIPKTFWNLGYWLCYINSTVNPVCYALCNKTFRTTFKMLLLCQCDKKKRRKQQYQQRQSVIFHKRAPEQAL

CC(=O)N(O)CCCCCNC(=O)CCC(=O)N(O)CCCCCNC(=O)CCC(=O)N(O)CCCCCN [deferoxamine mesylate]
bone mineral density [1]: increasing | reverse transformation of L-subtype vascular endothelium into H-subtype vascular endothelium [1]: promotes

C[N+]1([O-])CCN(C2=Nc3cc(Cl)ccc3Nc3ccccc32)CC1 [CNO, Clozapine N-oxide]
number of the H-subtype bone vascular endothelial cells near the long bone growth plate [2]: increased | sympathetic nerve activity [2]: activated | bone mass of the trabecular bone [3]: rise | number of the H-subtype bone vascular endothelial cells [4]: reduced | sympathetic nerve activity [4]: inhibited | bone mass of the trabecular bone [5]: decrease

CN1CCN(C2=Nc3ccccc3Nc3ccccc32)CC1 [Deschloroclozapine]
affinity for hM4Di [6]: higher | affinity for hM3Dq [7]: higher

Source: patent publication US20240181080A1, “METHOD FOR CONTROLLING HETEROGENEITY OF VASCULAR ENDOTHELIAL CELLS BY UTILIZING SYMPATHETIC NERVES” (priority 2021, published 2024)
